Reference: US20240016773A1, “COMPOSITIONS AND METHODS FOR DIAGNOSIS AND TREATMENT OF CONDITIONS RELATED TO AGING” (EPITRACKER, INC., priority 2018, published 2024)

What was measured:
[1] = tested on: Primary endothelial cells stimulated with IL-1β, TNF-α, and IFNγ; test: Second cell-based system: Th1 inflammatory and prothrombotic environment; set-up: species or system human
Description: (§1) This study examined the impact of synthetic pentadecanoic acid (C15:0) at four concentrations (740 nm and 2.2, 6.7, and 20 μM) on three primary human cell-based activity systems that were exposed to agents that mimicked allergic, thrombotic, and fibrotic disease states. In general, protein-based biomarkers in these systems were measured and compared with controls. Pentadecanoic acid was considered ‘active’ when 2 or more consecutive concentrations changed a given biomarker in the same direction relative to vehicle controls, were outside of the significance envelope of internal controls, and had at least one concentration with an effect size greater than 20% (log 10 ratio >0.1).
The second cell-based system recapitulated a Th1 inflammatory and prothrombotic environment. Primary endothelial cells were stimulated with IL-1β, TNF-α, and IFNγ and incubated with pentadecanoic acid for 24 hours. In addition to controls that were not treated with pentadecanoic acid, a negative, non-stimulated system was also included. Urokinase plasminogen activator receptor (uPAR) activation in this system was measured and compared with controls.

[2] = tested on: Primary dermal fibroblasts stimulated with IL-1β, TNFα, IFNγ, EGF, bFGF, and PDGF-BB; test: Third cell-based system: fibrosis and cell proliferation; set-up: species or system human
Description: as §1
The third cell-based system recapitulated fibrosis and cell proliferation. Primary dermal fibroblasts were stimulated with IL-1β, TNFα, IFNγ, EGF, bFGF, and PDGF-BB and incubated with pentadecanoic acid for 24 hours. In addition to controls that were not treated with pentadecanoic acid, a negative, non-stimulated system was also included. Plasminogen activator inhibitor-1 (PAI-1), Collagen-I and fibroblast proliferation (at 72 hours) in this system were measured and compared with controls.

[3] = tested on: New Zealand white rabbits fed a high fat diet; test: High fat diet-fed New Zealand white rabbit model, daily pentadecanoic acid in diet; format: in vivo
Description: This study examined the impact of daily oral administration of synthetic pentadecanoic acid (C15:0) on serum globulins, cholesterol, and liver fibrosis in an animal model fed a high fat diet. Sixteen New Zealand white rabbits were fed a high fat diet (HFD) (4% peanut oil and 0.5% cholesterol) for 2 weeks. Study rabbits were then divided into the following two groups of eight: high fat diet controls, and high fat diet animals treated with pentadecanoic acid (35 mg/kg body weight). The test article was a synthetic powder form stable at room temperature and purchased from Sigma-Aldrich (Products W433400 (≥99% pentadecanoic acid). The test article was provided daily in the diet for 11 weeks (77 days) while continuing ad libitum access to the HFD. Total cholesterol, platelets, and globulins were measured at Days 0 and 77.
On Day 77, liver tissues from HFD controls and pentadecanoic acid-treated animals were collected and scored histologically for fibrosis by a board-certified veterinary pathologist. Liver tissues were processed into paraffin-embedded blocks for H&E and picrosirius red staining for fibrosis (collagen deposition). Whole picrosirius red stained liver slides were scanned using Aperio ScanScope AT2 at 20×. Fibrosis stages were defined as follows: 0=none, 1=persinusoidal or periportal, 2=perisinusoidal and portal/periportal, 3=bridging fibrosis, 4=cirrhosis. Data from the treated group were compared to the control group using Wilcoxon rank sum analyses. Significance was defined as a P value less than or equal to 0.05.

[4] = tested on: SAg system: venular endothelial cells, peripheral blood mononuclear cells (TCR ligands); test: BioMAP Diversity PLUS, SAg system; format: cell-based, human
Text: (§2) The Diversity PLUS panel allows test agent characterization in an unbiased way across a broad set of systems modeling various human disease states. These systems are designed to model complex human tissue and disease biology of the vasculature, skin, lung, and inflammatory tissues. Quantitative measurements of 148 biomarker activities across this broad panel, along with comparative analysis of biological activities from known bioactive agents, were used to predict and compare the efficacy and function of each selected compound at four concentrations (740 nm and 2.2, 6.7 and 20 μM).
(§3) BioMAP systems are constructed with one or more primary cell types from healthy human donors, with stimuli (such as cytokines or growth factors) added to capture relevant signaling networks that naturally occur in human tissue or pathological conditions. Vascular biology is modeled in both a Th1 (3C system) and a Th2 (4H system) inflammatory environment, as well as in a Th1 inflammatory state specific to arterial smooth muscle cells (CASM3C system). Additional systems recapitulate aspects of the systemic immune response including monocyte-driven Th1 inflammation (LPS system) or T cell stimulation (SAg system), chronic Th1 inflammation driven by macrophage activation (lMphg system) and the T cell-dependent activation of B cells that occurs in germinal centers (BT system). The BE3C system (Th1) and the BF4T system (Th2) represent airway inflammation of the lung, while the MyoF system models myofibroblast-lung tissue remodeling. Lastly, skin biology is addressed in the KF3CT system modeling Th1 cutaneous inflammation and the HDF3CGF system modeling wound healing.
(§4) Each test agent generates a signature BioMAP profile that is created from the changes in protein biomarker readouts within individual system environments. Biomarker readouts (7-17 per system) are selected for therapeutic and biological relevance, are predictive for disease outcomes or specific drug effects and are validated using agents with known mechanism of action (MoA). Each readout is measured quantitatively by immune-based methods that detect protein (e.g., ELISA) or functional assays that measure proliferation and viability. BioMAP readouts are diverse and include cell surface receptors, cytokines, chemokines, matrix molecules and enzymes. In total, the Diversity PLUS panel contains 148 biomarker readouts that capture biological changes that occur within the physiological context of the particular BioMAP system. Specific BioMAP activities have been correlated to in vivo biology, and multiparameter BioMAP profiles have been used to distinguish compounds based on MoA and target selectivity across diverse physiological systems.
(§5) Activated BioMAP systems were incubated with each compound for 24 to 72 hours. Protein-based biomarkers from activated cell systems were measured and compared with non-treated control systems.

[5] = tested on: twelve different human primary cell systems mimicking various disease states; test: BioMAP Diversity PLUS panel, twelve human primary cell systems (summary by disease); format: cell-based; set-up: key: x: Significantly reduced cell-based biomarkers relevant to specific diseases and conditions
Text: As a proof of concept, 14 compounds were selected from our compound library based on predicted efficacy in lowering inflammation in dolphins. Pure synthetic forms of these compounds were screened for cell-based activities (relevant to multiple aging-associated diseases and diseases that may impact longevity) using twelve different human primary cell systems mimicking various disease states (TABLE 4—description of primary human cell systems used to screen selected compounds in library).
as §2, §3, §4, §5

[6] = 24 hours incubation, 6.7 μM and 20 μM bioactive, vs controls
[7] = all four concentrations (740 nm and 2.2, 6.7, and 20 μM)

## CCCCCCCCCCCCCCC(=O)O [Pentadecanoic acid, pentadecanoic acid]
[1]; [6]
  uPAR (FIG. 3): increases
[1]; [7]
  Cytotoxicity: non-cytotoxic
[2]; [6]
  Collagen-I (FIG. 4): decreases
  PAI-1 (FIG. 4): decreases
[2]; 72 hours, 6.7 μM and 20 μM bioactive, vs controls
  72-hour fibroblast proliferation (FIG. 4): decreases
[2]; [7]
  Cytotoxicity: non-cytotoxic
[3]; 35 mg/kg daily in diet, 11 weeks
  Early mortalities: no early mortalities
[3]; 35 mg/kg daily in diet, 11 weeks, HFD rabbits
  Tolerability of test article: tolerated the test article throughout the study
[3]; 35 mg/kg daily oral for 11 weeks, histology, picrosirius red
  Stage 3 bridging fibrosis in liver (FIG. 1): lack of Stage 3 bridging fibrosis
[3]; Day 77, 35 mg/kg, HFD rabbits
  Platelets compared with HFD control group: lower
[3]; Index at Day 77 (head), 35 mg/kg dose daily in diet 11 weeks, HFD rabbits, P 0.004
  Globulins: 1.3 ± 0.7 G/dl
[3]; Index at Day 77 (head), 35 mg/kg dose daily in diet 11 weeks, HFD rabbits, plasma, P 0.024
  Cholesterol: 2516 ± 746 mg/dL
[3]; Index at Day 77 (head), 35 mg/kg dose, n = 8, stage score 0-4, P 0.016
  Liver Fibrosis Stage: 2.3 ± 0.5
[4]; 6.7 μM
  Significant log10 reduction vs nontreated controls: Monocyte chemoattractant protein 1 (MCP-1): −0.18 log10
[4]; 20.0 μM
  Significant log10 reduction vs nontreated controls: Monocyte chemoattractant protein 1 (MCP-1): −0.15 log10
[5]; Table 6
  Significantly reduced cell-based biomarkers relevant to: Allergy: x
  Significantly reduced cell-based biomarkers relevant to: Asthma: x
  Significantly reduced cell-based biomarkers relevant to: Autoimmunity: x
  Significantly reduced cell-based biomarkers relevant to: Hematological oncology: x
  Significantly reduced cell-based biomarkers relevant to: SLE: x
  Significantly reduced cell-based biomarkers relevant to: T-cell dependent B cell proliferation: x
[5]; Table 7
  Significantly reduced cell-based biomarkers relevant to: Chronic inflammation: x
  Significantly reduced cell-based biomarkers relevant to: Organ transplantation: x
  Significantly reduced cell-based biomarkers relevant to: Psoriasis: x
  Significantly reduced cell-based biomarkers relevant to: Rheumatoid arthritis: x
  Significantly reduced cell-based biomarkers relevant to: Thl type inflammation: x
[5]; Table 8
  Significantly reduced cell-based biomarkers relevant to: Crohn's disease: x
  Significantly reduced cell-based biomarkers relevant to: Fibrosis: x
  Significantly reduced cell-based biomarkers relevant to: Hematological oncology: x
  Significantly reduced cell-based biomarkers relevant to: Stromal biology in tumors: x
